Source: patent publication US10238738B2, “Methods of modulating immune system responses” (priority 2014, dated 2019)

How the values were obtained:
TIFA expression = assay: qRT-PCR of TIFA mRNA levels in Jurkat T cells; type: cell-based, human; conditions: dependent on RelA, FIG. 13
Source text: FIG. 13. Shown is qRT-PCR analysis of TIFA mRNA levels in Jurkat T cells treated with HBP, flagellin, or TNFα (after knockdown of the NF-κB subunit ReIA, or treated with a scrambled shRNA (shCtrl).
RNA was isolated using an RNeasy kit (Qiagen) per manufacturers' protocol. cDNA was synthesized using the iScript cDNA synthesis kit (Bio-Rad) and treated with TURBO DNase (Life Technologies). cDNA was amplified using SsoAdvanced SYBR Green (Bio-Rad) using a C1000 thermal cycler (Bio-Rad). Target genes were amplified using the following primers: […]
Relative expression was calculated using the 2^−ΔΔCT method following normalization of target gene abundance to GAPDH. Quantitative measurements of cytokines were performed using ELISA kits form R&D Systems (KC, IL-23, IFN-β) or BD Biosciences (IL-1β, IL-8, IL-6, IL-12p70, TNF-α). Nuclear extracts were prepared from Jurkat T cells and NF-κB subunit binding was determined using the TransAM® Transcription Factor ELISA (Active Motif). Microarray

TIFA = molecular target: T1, TIFA (Homo sapiens, UniProt Q96CG3); assay: Native PAGE analysis of FLAG-TIFA oligomerization; type: cell-based; conditions: clear native-PAGE or blue native PAGE; Jurkat cells; FIG. 20
T1 construct: expressed in transfected cells; endogenous TIFA knocked down with a 3' UTR shRNA
T1 sequence (Q96CG3 1-184): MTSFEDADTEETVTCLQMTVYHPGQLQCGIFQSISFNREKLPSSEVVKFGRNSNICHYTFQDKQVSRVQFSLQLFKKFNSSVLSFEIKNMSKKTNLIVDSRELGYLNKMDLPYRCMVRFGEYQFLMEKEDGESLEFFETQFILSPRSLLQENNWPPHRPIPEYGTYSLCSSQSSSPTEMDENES
Source text: For BlueNative PAGE, cells were lysed in 1% NP-40, 0.1% Triton-X100, 0.1% SDS and soluble lysate separated by gradient PAGE (8-16%) using ExpressPlus System™ (GenScript) as described previously (Kofoed and Vance, 2013). For ClearNative PAGE, cells were lysed in 1% NP-40, 0.1% Trition-X100, 0.1% SDS and soluble lysate separated on 12.5% tris-glycine polyacrylamide gels.

TRAF2 = assay: FLAG-TIFA immunoprecipitation and immunoblot for TRAF2; type: cell-based, human; conditions: HBP treatment; FIG. 16a
Method: FLAG-TIFA was immunoprecipitated from Jurkat cells using FLAG M2 agarose beads (Sigma) as described previously (Chen and Gingras, 2007). Briefly, cells were lysed in 50 mM Hepes-KOH pH 8.0, 100 mM KCl, 2 mM EDTA, 0.1% NP40, 10% glycerol. Soluble cell lysates were pre-cleared for 2 hr with mouse IgG agarose (Sigma) and immunoprecipitated overnight at 4° C. Proteins eluted using 0.5 M NH4OH pH 11 (for mass-spectrometry), or 3× FLAG-peptide (Sigma) (immunoblot analysis). TRAF6 was immunoprecipitated from Jurkat cell lysates using rabbit anti-TRAF6 (sc-72201; Santa cruz) conjugated to protein A/G PLUS-agarose (Santa cruz) and eluted in sample buffer. Whole cell lysates or immunoprecipitation eluates were immunoblotted with the following antibodies: M2 anti-FLAG (Sigma), rabbit anti-FLAG (Sigma), mouse anti-TRAF6 (sc-8409; Santa Cruz), rabbit anti-TRAF2 (sc-876), mouse anti-ubiquitin (sc-8017; Santa cruz), mouse anti-beta actin (Sigma). For phosphopeptide analysis, FLAG-TIFA was excised from the gel, subject to in-gel trypic digestion, followed by treatment with cyanogen bromide (Sigma) in 70% TFA and analyzed by LC/MS/MS. Data were analyzed by Scaffold PTM (Proteome).

NF-κB = NF-κB luciferase reporter assay in 293T cells; type: cell-based, human
Method: 293T were maintained in DMEM supplemented with 10% FBS, 1% glutamax, and 1% penicillin streptomycin. Jurkat 1G5 cells contain a stably-integrated LTR-luciferase reporter gene (Aguilar-Cordova et al., 1994), and were maintained in RPMI supplemented with 10% FBS and 1% glutamax. THP-1 cells were maintained in RPMI supplemented with 10% FBS and 1% glutamax and differentiated to macrophages with 50 ng/ml PMA for 48 hr, followed by a 48 hr rest period prior to stimulation. To measure LTR-driven luciferase, 1G5 cells were lysed and luminescence determined using the Luciferase Assay kit (Promega) according to manufacturer's instructions. Results are expressed as fold change compared to untreated. 293T cells were transfected in 96 well plates with 90 ng ELAM firefly luciferase reporter plasmid (Chow et al., 1999) and 10 ng pRL-TK Renilla plasmid using TransiT LTI (Mirus). 18 hours later cells were treated for 6 hours and luciferase activity determined using the Dual-Glo Luciferase Assay System (Promega). Results are expressed as fold increase relative to transfected, mock treated cells following normalization to Renilla luciferase. Digitonin permeabilization assays were done as described previously (Girardin et al., 2003) with the following modifications: 1G5 cells were stimulated with purified HBP supernatants, or 10 μg/ml flagellin (Invivogen) for 20 minutes at 4° C. in the absence or presence of 2 μg/ml digitonin (Sigma). […]
293T were maintained in DMEM supplemented with 10% FBS, 1% glutamax, and 1% penicillin streptomycin. […] To measure LTR-driven luciferase, 1G5 cells were lysed and luminescence determined using the Luciferase Assay kit (Promega) according to manufacturers instructions. Results are expressed as fold change compared to untreated. […] 18 hours later cells were treated for 6 hours and luciferase activity determined using the Dual-Glo Luciferase Assay System (Promega). Results are expressed as fold increase relative to transfected, mock treated cells following normalization to Renilla luciferase.

THP-1 macrophages = assay: qRT-PCR analysis of THP-1 macrophages treated with synthetic HBP and TLR ligands; type: cell-based, human; conditions: 4 hr, with PAM3CSK4 or flagellin; FIG. 3c
Method: FIG. 3(c), qRT-PCR analysis of THP-1 macrophages treated with synthetic HBP (sHBP), PAM3CSK4 (PAM3), or flagellin (FLAG) for 4 hr, expressed as fold increase relative to untreated after normalization to GAPDH. Data represent ≥3 independent experiments performed in duplicate. All error bars±s.e.m. *P<0.05, **P<0.01 by ANOVA.
THP-1 cells were maintained in RPMI supplemented with 10% FBS and 1% glutamax and differentiated to macrophages with 50 ng/ml PMA for 48 hr, followed by a 48 hr rest period prior to stimulation. […] Results are expressed as fold change compared to untreated.

Question: Which results are given for O=P(O)(O)OC[C@@H](O)[C@H]1OC(OP(=O)(O)O)[C@@H](O)[C@@H](O)[C@@H]1O (stereo partly drawn) [HBP, D-glycerol-D-manno-heptose-1,7-bisphosphate]?
Answer: Upregulation of TIFA expression (TIFA expression): over 5 fold; TIFA oligomerization (TIFA): triggered TIFA oligomerization; TIFA interaction with TRAF2 (TRAF2): No interaction was observed; NF-κB activation after incubation of the product with phosphatase GmhB (NF-κB; FIG. 1e): decreased NF-κB activation; NF-κB activation (NF-κB; product of in vitro reaction of S7P with GmhA and HldA, FIG. 1d): potently stimulated NF-κB; Activation of THP-1 macrophages in combination with TLR ligands (THP-1 macrophages): synergistically activated THP-1 macrophages
